Results from patent US8637501B2, “Azinone-substituted azepino[b]indole and pyrido-pyrrolo-azepine MCH-1 antagonists, methods of making, and use thereof” (Albany Molecular Research, Inc., priority 2009, dated 2014).
pKi: −log10 of the molar value.

Tests used:
human MCH-1 receptor = human MCH-1 receptor (Homo sapiens (Human), UniProt Q99705); assay: Binding Assay for Human Melanin-Concentrating Hormone (MCH-1) Receptor; settings: radioligand displacement, membranes from CHO-K1 cells expressing human MCH-1 receptor; Ki from IC50 by Cheng Prusoff equation; read-out: MCH1 Ki
Outline: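 Membranes from CHO-K1 cells stably expressing human MCH-1 incubated 60 min at 25 °C with 1.4 nM tritiated indazolyl-pyridinone radioligand in 50 mM Tris-HCl pH 7.4. Bound counts by filtration and scintillation; IC50 and nH by Hill fit, Ki by Cheng–Prusoff.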

human MCH-1 receptor, sequence (Q99705 whole entry): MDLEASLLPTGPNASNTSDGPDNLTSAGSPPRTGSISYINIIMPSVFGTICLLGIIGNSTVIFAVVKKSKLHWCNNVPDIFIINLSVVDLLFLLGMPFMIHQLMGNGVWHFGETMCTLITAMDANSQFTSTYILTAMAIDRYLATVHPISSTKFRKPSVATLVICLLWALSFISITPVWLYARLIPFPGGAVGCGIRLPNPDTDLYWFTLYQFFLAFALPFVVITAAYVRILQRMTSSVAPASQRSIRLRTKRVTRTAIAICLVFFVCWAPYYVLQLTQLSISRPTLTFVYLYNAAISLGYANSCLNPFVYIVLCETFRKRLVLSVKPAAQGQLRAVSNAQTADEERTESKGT

SMILES | pKi (human MCH-1 receptor) | melting point
Cl.Cn1c2c(c3ccc(-n4ccc(-c5ccc(C(F)(F)F)nc5)cc4=O)nc31)CCNCC2 [Example 78, 1-(10-Methyl-5,6,7,8,9,10-hexahydropyrido[3′,2′:4,5]pyrrolo[2,3-d]azepin-2-yl)-4-(6-(trifluoromethyl)pyridin-3-yl)pyridin-2(1H)-one hydrochloride] | 7.54 | 320 to 325 °C (dec.)
CC(=O)N1CCCc2c(c3ccc(-n4ccc(OCc5ccc(F)cn5)cc4=O)cc3n2C)C1 [Example 61, 1-(2-Acetyl-6-methyl-1,2,3,4,5,6-hexahydroazepino[4,3-b]indol-8-yl)-4-((5fluoropyridin-2-yl)methyoxy)pyridin-2(1H)-one] | 7.24 | 78 to 83 °C
Cc1ccc(-c2ccn(-c3ccc4c5c(n(C)c4c3)CCCNC5)c(=O)c2)cn1.Cl [Example 33, 1-(6-Methyl-1,2,3,4,5,6-hexahydroazepino[4,3-b]indol-8-yl)-4-(6-methylpyridin-3-yl)pyridin-2(1H)-one hydrochloride] | 7.76 | 245 to 250 °C (dec.)
CC(C)N1CCc2[nH]c3cc(-n4ccc(OCc5ccccc5)cc4=O)ccc3c2CC1.Cl [Example 17, 4-(Benzyloxy)-1-(3-isopropyl-1,2,3,4,5,6-hexahydroazepino[4,5-b]indol-8-yl)pyridin-2(1H)-one hydrochloride] | 8.14 | 152 to 155 °C
Cl.Cn1c2c(c3ccc(-n4ccc(-c5ccc(C(F)(F)F)nn5)cc4=O)nc31)CCNCC2 [Example 79, 1-(10-Methyl-5,6,7,8,9,10-hexahydropyrido[3′,2′:4,5]pyrrolo[2,3-d]azepin-2-yl)-4-(6-(trifluoromethyl)pyridazin-3-yl)pyridin-2(1H)-one hydrochloride] | 6.63 | 300 to 305 °C (dec.)
Cl.Cn1c2c(c3ccc(-n4ccc(OCc5ccccc5)cc4=O)nc31)CCNCC2 [Example 77, 4-(Benzyloxy)-1-(10-methyl-5,6,7,8,9,10-hexahydropyrido[3′,2′:4,5]pyrrolo[2,3-d]azepin-2-yl)pyridin-2(1H)-one hydrochloride] | 7.96 | 180 to 185 °C (dec.)
